Experimental data from the supplement of paper PMC8882468.

Assays:
HCI-016 = organoid from a triple-negative breast cancer xenograft; assay: CTG-3D luminescence at 96 h relative to day-0 seeding control (ratio to day 0); higher = more growth / less cytotoxicity
Experimental: (§1)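 PDxO 3D drug screen (set 2), 8-point dose, 96 h; CTG-3D luminescence normalised to day-0 seeding control (mean of 4 wells each).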

HCI-010 = organoid from a breast cancer xenograft; assay: as above
Experimental: as §1

CC/C(=C(\c1ccc(O)cc1)c1ccc(OCCN(C)C)cc1)c1ccccc1 [4-hydroxytamoxifen]
CTG-3D luminescence at 96 h
Settings | 12.5 pM | 0.00025 µM | 0.005 µM | 0.1 µM | 1 µM | 10 µM | 100 µM | 625 fM
HCI-010, days in culture: 79 | 2.04 | 1.84 | 1.96 | 1.93 | 1.9 | 1.48 | 0.00321 | 2.05
HCI-010, days in culture: 86 | 1.97 | 2.48 | 2.21 | 2.15 | 2.19 | 1.35 | 0.0109 | 2.16
HCI-010, days in culture: 102 | 1.1 | 1.13 | 1.07 | 1.2 | 1.23 | 0.95 | 0.00505 | 0.88
HCI-010, days in culture: 164 | 1.4 | 1.46 | 1.45 | 1.45 | 1.38 | 0.899 | 0.00677 | 1.23
HCI-016, days in culture: 305 | 2.77 | 4.59 | 2.65 | 4.18 | 2.47 | 1.67 | 0.0261 | 4.99
HCI-016, days in culture: 327 | 0.944 | 0.968 | 2.39 | 2.26 | 1.5 | 1.58 | 0.0115 | 1.27
HCI-016, days in culture: 341 | 2.5 | 1.22 | 2.22 | 1.54 | 1.41 | 1.48 | 0.00227 | 2.1
HCI-016, days in culture: 397 | 1.82 | 2.24 | 1.56 | 1.83 | 1.91 | 2.17 | 0.0134 | 2
